Values quoted from earlier work as cited in patent EP2566462B1, “IMMEDIATE RELEASE FORMULATIONS AND DOSAGE FORMS OF GAMMA-HYDROXYBUTYRATE” (Jazz Pharmaceuticals Inc., priority 2010, dated 2011).

Legend:
[1] = in man, given orally
[2] = tested on: patients with hyperkinetic movement disorders including ethanol responsive myoclonus and essential tremor; conditions: open label, five patients

O=C([O-])CCCO.[Na+] [sodium oxybate, Sodium gamma-hydroxybutyrate]
plasma half-life [1]: about 45 minutes | blinded ratings of ethanol responsive myoclonus and tremor [2]: dose-dependent improvements | tolerability [2]: tolerated at doses that provided clinical benefit
